Measurements: PubChem BioAssay AID2060903 (Molecular Pharmacology Branch, DTP, NCI, 2025)
Values joined by “and” are separate entries in the source; they are usually repeats but may differ in a detail not shown here. Identical values can stand only once.

System: 377384-186-R-J1-PDC complex spheroid viability
Assay: Anticancer human tumor 377384-186-R-J1-PDC patient-derived pancreatic carcinoma cell line growth inhibition [RAS]
Conditions: for viability, T/C: stronger effect = lower value; active = viability on the fitted dose curve at most 10% of control; inactive = the rest
Outline: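 Tumour cells grown as complex spheroids with HUVEC endothelial cells and mesenchymal stem cells, treated with RAS pathway inhibitor combinations. Each agent spans half-log steps from near clinical Cmax, or 10 microM where Cmax is unknown.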
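Note: spheroids exposed to compounds for seven days before readout.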

O=C(c1ccc(F)c(F)c1Nc1ccc(I)cc1F)N1CC(O)([C@@H]2CCCCN2)C1
39.2 nM [middle of 4 runs]: IC50 (curve of compound)
active: viability, T/C (compound 0.316 µM) 2.49% [middle of 4 runs] | viability, T/C (compound 1 µM) 0.68% [middle of 4 runs]
inactive: viability, T/C (compound 0.00316 µM) 85.8% [middle of 4 runs] | viability, T/C (compound 0.01 µM) 79.5% [middle of 4 runs] | viability, T/C (compound 0.0316 µM) 56.3% [middle of 4 runs] | viability, T/C (compound 0.1 µM) 21.3% (2×) and 13.7% and 21.1%

Nc1ccn(C2OC(CO)C(O)C2(F)F)c(=O)n1 (centres undefined) + CCn1c(-c2cccnc2C(C)OC)c2c3cc(ccc31)N1CCOC(CC(NC(=O)C(C(C)C)N(C)C(=O)C3(F)CCN(C(=O)C#CC(C)(C)N(C)C)CC3)C(=O)N3CCCC(N3)C(=O)OCC(C)(C)C2)C1
7.06 nM: IC50 (curve of first compound, second compound 0.3 µM)
12.6 nM: IC50 (curve of first compound, second compound 0.00949 µM)
inactive: viability, T/C (second compound 0.000949 µM, first compound 0.00316 µM) 87.1% | viability, T/C (second compound 0.000949 µM, first compound 0.01 µM) 53.8% | viability, T/C (second compound 0.000949 µM, first compound 0.0316 µM) 19.4% | viability, T/C (second compound 0.003 µM, first compound 0.00316 µM) 94.7% | viability, T/C (second compound 0.003 µM, first compound 0.01 µM) 48.4% | viability, T/C (second compound 0.003 µM, first compound 0.0316 µM) 23.4% | viability, T/C (second compound 0.003 µM, first compound 0.1 µM) 9.1% | viability, T/C (second compound 0.00949 µM, first compound 0.00316 µM) 96.1% | viability, T/C (second compound 0.00949 µM, first compound 0.01 µM) 57.7% | viability, T/C (second compound 0.00949 µM, first compound 0.0316 µM) 19.2% | viability, T/C (second compound 0.03 µM, first compound 0.00316 µM) 90.9% | viability, T/C (second compound 0.03 µM, first compound 0.01 µM) 55.3% | viability, T/C (second compound 0.03 µM, first compound 0.0316 µM) 17.6% | viability, T/C (second compound 0.0949 µM, first compound 0.00316 µM) 79.1% | viability, T/C (second compound 0.0949 µM, first compound 0.01 µM) 47.8% | viability, T/C (second compound 0.0949 µM, first compound 0.0316 µM) 20.1% | viability, T/C (second compound 0.3 µM, first compound 0.00316 µM) 71.9% | viability, T/C (second compound 0.3 µM, first compound 0.01 µM) 40.6% | viability, T/C (second compound 0.3 µM, first compound 0.0316 µM) 13%
9.69 nM: IC50 (curve of first compound, second compound 0.003 µM)
active: viability, T/C (second compound 0.000949 µM, first compound 0.1 µM) 7.57% | viability, T/C (second compound 0.000949 µM, first compound 0.316 µM) 5.68% | viability, T/C (second compound 0.000949 µM, first compound 1 µM) 3.18% | viability, T/C (second compound 0.003 µM, first compound 0.316 µM) 4.5% | viability, T/C (second compound 0.003 µM, first compound 1 µM) 3.68% | viability, T/C (second compound 0.00949 µM, first compound 0.1 µM) 8.08% | viability, T/C (second compound 0.00949 µM, first compound 0.316 µM) 5.38% | viability, T/C (second compound 0.00949 µM, first compound 1 µM) 4.57% | viability, T/C (second compound 0.03 µM, first compound 0.1 µM) 5.8% | viability, T/C (second compound 0.03 µM, first compound 0.316 µM) 5.88% | viability, T/C (second compound 0.03 µM, first compound 1 µM) 3.65% | viability, T/C (second compound 0.0949 µM, first compound 0.1 µM) 7.12% | viability, T/C (second compound 0.0949 µM, first compound 0.316 µM) 4.37% | viability, T/C (second compound 0.0949 µM, first compound 1 µM) 4.2% | viability, T/C (second compound 0.3 µM, first compound 0.1 µM) 5.77% | viability, T/C (second compound 0.3 µM, first compound 0.316 µM) 4.01% | viability, T/C (second compound 0.3 µM, first compound 1 µM) 3.34%
11.3 nM: IC50 (curve of first compound, second compound 0.000949 µM)
9.29 nM: IC50 (curve of first compound, second compound 0.0949 µM)
11.8 nM: IC50 (curve of first compound, second compound 0.03 µM)
